In general, pEC50 refers to −log10 of the EC50, conventionally taken in molar units. A higher pEC50 goes with a small EC50.

pEC50: −log10 of the molar value.

In this experiment the test system is YAP/TAZ-TEAD transcription. The experiment is described as follows: Reporter gene assay for measuring the inhibition of YAP/TAZ-TEAD transcription (TEAD-responsive element luciferase reporter in Hek293T cells). It counts as cell-based. To be noted: Homo sapiens, HEK-293T, 24 hours incubation. Put shortly: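 Percent inhibition, scaled between vehicle (0%) and a positive control inhibitor (100%), came from SteadyLite luciferase signal after 24 h compound exposure at 37 °C/5% CO2. Cells: Hek293T transiently carrying a TEAD-responsive luciferase reporter; EC50 derived.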
Compound `CNS(=O)(=O)CCNc1ccc(-c2cc(F)cc(F)c2)cc1-c1ccn(Cc2cccnc2)n1` [compound 101, 2-((3′,5′-difluoro-3-(1-(pyridin-3-ylmethyl)-1H-pyrazol-3-yl)-[1,1′-biphenyl]-4-yl)amino)-N-methylethane-1-sulfonamide] showed a negative logarithm of the EC50 (pEC50) above 6.00.
Consider `CNS(=O)(=O)CCNc1ccc(-c2ccc(C(F)(F)F)cc2)cc1-c1ccn(Cc2cccc(F)c2)n1` [compound 103, 2-((3-(1-(3-fluorobenzyl)-1H-pyrazol-3-yl)-4′-(trifluoromethyl)-[1,1′-biphenyl]-4-yl)amino)-N-methylethane-1-sulfonamide], for which the pEC50 was above 6.00.
In the case of `CNS(=O)(=O)CCNc1ccc(-c2ccccc2)cc1-c1ccn(Cc2cccc(C#N)c2)n1` [compound 104, 2-((3-(1-(3-cyanobenzyl)-1H-pyrazol-3-yl)-[1,1′-biphenyl]-4-yl)amino)-N-methylethane-1-sulfonamide] it was above 6.00; in that of `CNS(=O)(=O)CCNc1ccc(-c2ccc(C(F)(F)F)cc2)cc1-c1ccn(CCOC)n1` [compound 105, 2-((3-(1-(2-methoxyethyl)-1H-pyrazol-3-yl)-4′-(trifluoromethyl)-[1,1′-biphenyl]-4-yl)amino)-N-methylethane-1-sulfonamide], above 6.00; in that of `CNS(=O)(=O)CCNc1ccc(-c2ccc(Cl)cc2)cc1-c1ccn(Cc2cccnc2)n1` [compound 106, 2-((4′-chloro-3-(1-(pyridin-3-ylmethyl)-1H-pyrazol-3-yl)-[1,1′-biphenyl]-4-yl)amino)-N-methylethane-1-sulfonamide], above 6.00.
The same measure for `O=S(=O)(O)CCNc1ccc(-c2ccc(Cl)cc2)cc1-c1ccn(Cc2cccnc2)n1` [compound 107, 2-((4′-chloro-3-(1-(pyridin-3-ylmethyl)-1H-pyrazol-3-yl)-[1,1′-biphenyl]-4-yl)amino)ethane-1-sulfonic acid]: below 4.70.
`CNS(=O)(=O)CCNc1ccc(-c2cnn(C)c2)cc1-c1ccn(Cc2cccnc2)n1` [compound 108, N-methyl-2-((4-(1-methyl-1H-pyrazol-4-yl)-2-(1-(pyridin-3-ylmethyl)-1H-pyrazol-3-yl)phenyl)amino)ethane-1-sulfonamide] gave a negative-log EC50 (pEC50) of 4.70 to 6.00.
`Cn1ccc(-c2ccc(NCCS(=O)(=O)O)c(-c3ccn(Cc4cccnc4)n3)c2)n1` [compound 109, 2-((4-(1-methyl-1H-pyrazol-3-yl)-2-(1-(pyridin-3-ylmethyl)-1H-pyrazol-3-yl)phenyl)amino)ethane-1-sulfonic acid] had a negative-log EC50 (pEC50) below 4.70.
The compound `COc1ccc(-c2ccc(NCCS(=O)(=O)F)c(-c3ccn(Cc4cccnc4)n3)c2)cc1` [compound 110, 2-((4′-methoxy-3-(1-(pyridin-3-ylmethyl)-1H-pyrazol-3-yl)-[1,1′-biphenyl]-4-yl)amino)ethane-1-sulfonyl fluoride] showed a negative-log EC50 (pEC50) of 4.70 to 6.00.
As for `CNS(=O)(=O)CCNc1ccc(-c2ccc(OC)cc2)cc1-c1ccn(Cc2cccnc2)n1` [compound 111, 2-((4′-methoxy-3-(1-(pyridin-3-ylmethyl)-1H-pyrazol-3-yl)-[1,1′-biphenyl]-4-yl)amino)-N-methylethane-1-sulfonamide], the pEC50 was above 6.00.
In the case of `CNS(=O)(=O)CCNc1ccc(-c2ccc(C(F)(F)F)cc2)cc1-c1ccn(CCO)n1` [compound 112, 2-((3-(1-(2-hydroxyethyl)-1H-pyrazol-3-yl)-4′-(trifluoromethyl)-[1,1′-biphenyl]-4-yl)amino)-N-methylethane-1-sulfonamide] it was above 6.00; in that of `CNS(=O)(=O)CCNc1ccc(-c2ccccc2)cc1-c1ccn(Cc2cccc(C(N)=O)c2)n1` [compound 113, 3-((3-(4-((2-(N-methylsulfamoyl)ethyl)amino)-[1,1′-biphenyl]-3-yl)-1H-pyrazol-1-yl)methyl)benzamide], above 6.00; in that of `CNS(=O)(=O)CCNc1ccc(-c2ccccn2)cc1-c1ccn(Cc2cccnc2)n1` [compound 114, N-methyl-2-((4-(pyridin-2-yl)-2-(1-(pyridin-3-ylmethyl)-1H-pyrazol-3-yl)phenyl)amino)ethane-1-sulfonamide], 4.70 to 6.00.
In turn, `CNS(=O)(=O)CCNc1ccc(Cc2ccccc2)cc1-c1ccn(Cc2cccnc2)n1` [compound 115, 2-((4-benzyl-2-(1-(pyridin-3-ylmethyl)-1H-pyrazol-3-yl)phenyl)amino)-N-methylethane-1-sulfonamide] gave a pEC50 above 6.00.
For `CNS(=O)(=O)CCNc1ccc(Nc2ccccc2)cc1-c1ccn(Cc2cccnc2)n1` [compound 116, N-methyl-2-((4-(phenylamino)-2-(1-(pyridin-3-ylmethyl)-1H-pyrazol-3-yl)phenyl)amino)ethane-1-sulfonamide], the negative-log EC50 (pEC50) is above 6.00.
Turning to `CNS(=O)(=O)CCNc1ccc(-c2cccc(C(F)(F)F)c2)cc1-c1ccn(C)n1` [compound 120], the pEC50 is above 6.00.
`CNS(=O)(=O)CCNc1ccc(-c2cccc(Cl)c2)cc1-c1ccn(C)n1` [compound 122, 2-((3′-chloro-3-(1-methyl-1H-pyrazol-3-yl)-[1,1′-biphenyl]-4-yl)amino)-N-methylethane-1-sulfonamide] showed a negative logarithm of the EC50 (pEC50) above 6.00.
The same measure for `CNS(=O)(=O)CCNc1ccc(-c2cc(F)ccc2F)cc1-c1ccn(C)n1` [compound 123, 2-((2′,5′-difluoro-3-(1-methyl-1H-pyrazol-3-yl)-[1,1′-biphenyl]-4-yl)amino)-N-methylethane-1-sulfonamide]: above 6.00; for `CNS(=O)(=O)CCNc1ccc(-c2cccc(F)c2F)cc1-c1ccn(C)n1` [compound 125, 2-((2′,3′-difluoro-3-(1-methyl-1H-pyrazol-3-yl)-[1,1′-biphenyl]-4-yl)amino)-N-methylethane-1-sulfonamide]: above 6.00; for `CNS(=O)(=O)CCNc1ccc(-c2cc(F)cc(F)c2)cc1-c1ccn(C)n1` [compound 126, 2-((3′,5′-difluoro-3-(1-methyl-1H-pyrazol-3-yl)-[1,1′-biphenyl]-4-yl)amino)-N-methylethane-1-sulfonamide]: above 6.00.
`CNS(=O)(=O)CCNc1ccc(-c2ccc(C(F)(F)F)c(F)c2)cc1-c1ccn(C)n1` [compound 127, 2-((3′-fluoro-3-(1-methyl-1H-pyrazol-3-yl)-4′-(trifluoromethyl)-[1,1′-biphenyl]-4-yl)amino)-N-methylethane-1-sulfonamide] gave a pEC50 above 6.00.
Take `CNS(=O)(=O)CCNc1ccc(-c2cc(F)cc(C(F)(F)F)c2)cc1-c1ccn(C)n1` [compound 128, 2-((3′-fluoro-3-(1-methyl-1H-pyrazol-3-yl)-5′-(trifluoromethyl)-[1,1′-biphenyl]-4-yl)amino)-N-methylethane-1-sulfonamide]: the negative logarithm of the EC50 (pEC50) is above 6.00.
`CNS(=O)(=O)CCNc1ccc(-c2cccc(OC(F)(F)F)c2)cc1-c1ccn(C)n1` [compound 129, N-methyl-2-((3-(1-methyl-1H-pyrazol-3-yl)-3′-(trifluoromethoxy)-[1,1′-biphenyl]-4-yl)amino)ethane-1-sulfonamide] showed a pEC50 of 4.70 to 6.00.
`CNS(=O)(=O)CCNc1cnc(-c2ccc(C(F)(F)F)cc2)cc1-c1ccn(C(F)F)n1` [compound 130, 2-((4-(1-(difluoromethyl)-1H-pyrazol-3-yl)-6-(4-(trifluoromethyl)phenyl)pyridin-3-yl)amino)-N-methylethane-1-sulfonamide]: the pEC50 is above 6.00.
In the case of `CN(C)S(=O)(=O)CCNc1ccc(-c2ccc(F)cc2)nc1-c1ccn(C(F)F)n1` [compound 133, 2-((2-(1-(difluoromethyl)-1H-pyrazol-3-yl)-6-(4-fluorophenyl)pyridin-3-yl)amino)-N,N-dimethylethane-1-sulfonamide] it was above 6.00; in that of `CNS(=O)(=O)CCNc1ccc(-c2ccc(C(F)(F)F)cc2)nc1-c1ccn(C(F)F)n1` [compound 134, 2-((2-(1-(difluoromethyl)-1H-pyrazol-3-yl)-6-(4-(trifluoromethyl)phenyl)pyridin-3-yl)amino)-N-methylethane-1-sulfonamide], above 6.00.
In the case of `C=CC(=O)NCc1ccc(-c2ccccc2)cc1-c1ccn(Cc2cccnc2)n1` [compound 136, N-((3-(1-(pyridin-3-ylmethyl)-1H-pyrazol-3-yl)-[1,1′-biphenyl]-4-yl)methyl)acrylamide] it was above 6.00.
For the compound `CCC(=O)NCc1cc(-c2ccccc2)cc(-c2ccn(C)n2)c1` [compound 138, N-((5-(1-methyl-1H-pyrazol-3-yl)-[1,1′-biphenyl]-3-yl)methyl)propionamide], the pEC50 was 4.70 to 6.00.
As for `C=CC(=O)NCc1cc(-c2ccccc2)cc(-c2ccn(Cc3cccnc3)n2)c1` [compound 139, N-((5-(1-(pyridin-3-ylmethyl)-1H-pyrazol-3-yl)-[1,1′-biphenyl]-3-yl)methyl)acrylamide], the pEC50 is above 6.00.
`C=CC(=O)NCc1ccc(-c2ccc(C(F)(F)F)cc2F)cc1-c1ccn(C)n1` [compound 146, N-((2′-fluoro-3-(1-methyl-1H-pyrazol-3-yl)-4′-(trifluoromethyl)-[1,1′-biphenyl]-4-yl)methyl)acrylamide]: the negative-log EC50 (pEC50) was above 6.00.
Compound `C=CC(=O)NCc1ccc(-c2ccc(C(F)(F)F)cn2)cc1-c1ccn(C)n1` [compound 147, N-(2-(1-methyl-1H-pyrazol-3-yl)-4-(5-(trifluoromethyl)pyridin-2-yl)benzyl)acrylamide] showed a negative logarithm of the EC50 (pEC50) above 6.00.
In turn, `C=CC(=O)NCc1ccc(-c2ccc(C(F)(F)F)nc2)cc1-c1ccn(C)n1` [compound 148, N-(2-(1-methyl-1H-pyrazol-3-yl)-4-(6-(trifluoromethyl)pyridin-3-yl)benzyl)acrylamide] gave a negative-log EC50 (pEC50) above 6.00.
In the case of `C=CC(=O)NCc1ccc(-c2ccc(F)cc2)cc1-c1ccn(C(C)C)n1` [compound 150, N-((4′-fluoro-3-(1-isopropyl-1H-pyrazol-3-yl)-[1,1′-biphenyl]-4-yl)methyl)acrylamide] it was above 6.00; in that of `C=CC(=O)NCc1ccc(-c2ccc(F)cc2)cc1-c1ccn(CCO)n1` [compound 151, N-((4′-fluoro-3-(1-(2-hydroxyethyl)-1H-pyrazol-3-yl)-[1,1′-biphenyl]-4-yl)methyl)acrylamide], above 6.00.

For the origin of these results see patent publication US12552772B2, “2-pyrazole anilines and related analogs for inhibiting YAP/TAZ-TEAD” (KATHOLIEKE UNIVERSITEIT LEUVEN, priority 2021, dated 2026).
